# Experimental data from article PMC4298801, “Structure-Guided Design Affirms Inhibitors of Hepatitis C Virus p7 as a Viable Class of Antivirals Targeting Virion Release” (Hepatology (Baltimore, Md.), 2013).
# Where two headings read alike, the source gives them in different places.
# Columns and labels:
# J4/JFH-1 (GT1b/2a HCV) = assay: Inhibition of infectious virus release from Huh7 cells transfected with J4/JFH-1 RNA (focus forming assay); assay type: cell-based, hepatitis C virus
# Protocol: (§1) Figure 4 Selection of novel, structurally diverse p7 inhibitors. In silico screening using p7 channel models as a template derived a range of Lipinski-compliant potential inhibitors of the p7 channel complex and the top 30 were selected for testing as proof-of-principle. (A) Liposome dye release assay showing endpoint values compounds with activity against wild-type p7 at 250 nM that were subsequently selected for cell culture studies. Results are the average of two separate experiments with each condition in duplicate and are expressed as a percentage of the untreated protein value following baseline subtraction (liposomes alone). […] (B) Inhibition of infectious virus release from Huh7 cells transfected with J4/JFH-1 RNA using novel compounds (400 nM). Selected compounds show minimal effect on intracellular infectivity, replicon replication and have no toxic effects (see Supporting Fig. 5 and Table 2). […] (C) Structures of selected initial hit compounds. (D) Predicted docking poses of rimantadine novel compounds at the allosteric binding site (calculated in Glide, Schrodinger). Key interacting residues are highlighted.
# Figure 6 Effects of novel inhibitors against multiple HCV genotypes. […] Results are representative of two independent experiments and are the average of triplicate wells. Error bars represent standard deviations. […]
# genotype 1b p7 = biological target: T1, genotype 1b p7 (Hepatitis C virus genotype 1b, UniProt O92972); assay: Liposome carboxyfluorescein dye release assay for p7 channel activity; assay type: biochemical; conditions: genotype 1b p7 in vitro, prototype control, read-out: median inhibitory concentration [IC50]
# T1 construct: selected for testing against genotype 1b p7 in vitro; made in house; host or cells: Escherichia coli BL21(DE3)
# Protocol: Liposome carboxyfluorescein release assays were conducted as described previously.[13],[15],[28]
# as §1
# Leu20Phe J4/JFH-1 = assay: HCV spread following infection at low M.O.I., NS5A foci counted; assay type: cell-based, hepatitis C virus; conditions: low multiplicity infection
# Excerpt: Figure 5 Specificity of novel p7 inhibitors. Screening lead hits LDS19 and 21 were examined for specificity against wild-type and rimantadine resistant HCV. (A) Titration of LDS 19 and 21 against Huh7 cells transfected with both wild-type (diamonds) and Leu20Phe (squares) J4/JFH-1 RNA, showing effects on released infectivity. Graph plots the average released titers from duplicate wells from at least two separate experiments, normalized to the 100% untreated value. Error bars represent normalized percent error of the mean between experiments (*P < 0.05). (B) Effects of p7 inhibitors on HCV spread following infection at low M.O.I (0.0001 FFU/cell). Huh7 cells were infected in triplicate overnight with wild-type (black) and Leu20Phe (white) J4/JFH-1 and then media replaced after extensive washing with that containing inhibitors. Fluorescent NS5A foci were counted at 72 hours postinfection. […] Error bars represent normalized percent error of the mean (*P < 0.05, **P < 0.01). […] Results are the average of two separate experiments with duplicate wells and error bars are normalized percent error of the mean between experiments.
# J4/JFH-1(L20F) = conditions: subcytotoxic concentrations; cited from earlier work
# T1 sequence (O92972 747-809): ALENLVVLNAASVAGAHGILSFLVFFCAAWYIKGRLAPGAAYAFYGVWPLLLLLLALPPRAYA
SMILES,"IC50 (J4/JFH-1 (GT1b/2a HCV); J4/JFH-1 RNA transfected Huh7, prototype shown for comparison, read-out: ∼IC50, infectious virus release)","IC50 (J4/JFH-1 (GT1b/2a HCV); Hepatitis C virus, GT1B, Huh-7, read-out: ∼IC50, infectious virus release)",IC50 (genotype 1b p7),sensitivity of Leu20Phe HCV spread to compound (Leu20Phe J4/JFH-1),effect on Leu20Phe infectious virion production (J4/JFH-1(L20F))
CCCCCCCCCN1C[C@H](O)[C@@H](O)[C@H](O)[C@H]1CO [NN-DNJ],~20 µM,,,,
CC(N)C12CC3CC(CC(C3)C1)C2 (centres unmarked) [rimantadine],,~40 µM,~40 µM,insensitive,ineffective
